Assay results published in PMC7897990, “TriTOX: A novel Trichomonas vaginalis assay platform for high-throughput screening of compound libraries” (International Journal for Parasitology: Drugs and Drug …, 2021).

Tests used:
T. vaginalis [1] = test: Medium-throughput (MTS) confirmatory dose-response growth assay, T. vaginalis; type: cell-based, Trichomonas vaginalis; conditions: Trichomonas vaginalis; 96-well, 10,000 cells/mL in 50 μL, 48 h, mean ± SEM; >10 = no appreciable activity at highest dose
Description: (§1) For microtiter plate assays, trichomonads were grown in anaerobic conditions within GasPak EZ anaerobe pouches with fresh anaerobic sachets. Working reagent of the chromogen was phenol red (Sigma) in a 1% w/v working solution in phosphate buffered saline (PBS), which was filter sterilised. Chromogen absorbance was monitored at 570 nm on an absorbance microplate reader after plates were allowed to equilibrate in atmospheric conditions at room temperature for at least 5 min.
(§2) After absorbances were measured, data were processed as followed unless indicated otherwise in the text. […] Prism 8 (GraphPad) was used to plot dose-response curves and calculate IC50 values, using a least squares regression, log[inhibitor] vs normalised response (variable slope, four parameters) model. Where replicate plates were used, data for dose-response curves were plotted as the mean±SD of these replicates.
(§3) A selection of 17 compounds assayed in the high-throughput screen (HTS) for T. vaginalis which were available through BioAustralis were obtained for validation of inhibitory in/activity in our optimised medium-throughput format. For this, a 10-point serial dilution was used for drug-susceptibility testing to calculate IC50 values of ‘hit’ compounds. Mtz was used as a positive control. Each screen was performed with 3 technical replicates and a minimum of 2 biological replicates in both T. vaginalis and T. foetus using assay conditions of seeds of 10,000 cells/mL in 50 μL, with absorbance measured at 48 h. Dose response curves and IC50 were calculated for each compound as described above in Section 2.3.

T. vaginalis [2] = test: Miniaturised Mtz drug-sensitivity assay, 384-well plates; type: cell-based; conditions: Trichomonas vaginalis
Description: as §1, §2
(§4) Miniaturised assay formats were assessed via Mtz drug-sensitivity for T. vaginalis in 96-well and 384-well plate formats using 5% (v/v) chromogen. For medium-throughput formats, seeds of 15,000 and 50,000 cells/mL were used in well volumes of 50 μL and 100 μL. For high-throughput formats, 25 μL well volumes were evaluated using seeds of 10,000, 20,000 and 40,000 cells/mL, while 50 μL well volumes used seeds of 5000, 10,000 and 20,000 cells/mL.

T. vaginalis [3] = test: Pre-optimisation Mtz drug-sensitivity testing, 96-well, T. vaginalis; type: cell-based; conditions: Trichomonas vaginalis
Description: as §1, §2
(§5) Trichomonad growth assays were assessed via Mtz drug-sensitivity testing in a medium throughput format (96-wells). Mtz was screened as two-fold, 10-point dilutions between 100 and 0.2 μM. For both T. foetus and T. vaginalis conditions were 5% (v/v) chromogen, well volumes of 100 μL and 200 μL and seeds of 10,000 and 20,000 cells/mL, and absorbance measured at 40 and 65 h. Mtz dose-response curves were plotted and Mtz IC50 calculated for both species, as well as the Z′ for each combination of conditions (volume, seed, timepoint) based on 4 technical replicates as described in Section 2.3.

T. foetus [4] = test: Pre-optimisation Mtz drug-sensitivity testing, 96-well, T. foetus; type: cell-based; conditions: Tritrichomonas foetus
Description: as §1, §2, §5

T. vaginalis [5] = test: Miniaturised Mtz drug-sensitivity assay, 96-well plates; type: cell-based; conditions: Trichomonas vaginalis
Description: as §1, §2, §4

T. foetus [6] = test: Medium-throughput (MTS) confirmatory dose-response growth assay, T. foetus; type: cell-based, Tritrichomonas foetus; conditions: Tritrichomonas foetus; 96-well, 10,000 cells/mL in 50 μL, 48 h, mean ± SEM; >10 = no appreciable activity at highest dose
Description: as §1, §2, §3

IC50 (T. vaginalis [1]): 1.4 ± 0.2 µM
IC50 (T. vaginalis [2]; 24 h, C5: 384-well, 250 cells/well, 25 µL, 24 h): 1.22 µM
IC50 (T. vaginalis [2]; 24 h, C6: 384-well, 500 cells/well, 25 µL, 24 h): 2.02 µM
IC50 (T. vaginalis [2]; 24 h, C7: 384-well, 1000 cells/well, 25 µL, 24 h): 3.21 µM
IC50 (T. vaginalis [2]; 24 h, C8: 384-well, 250 cells/well, 50 µL, 24 h): 0.759 µM
IC50 (T. vaginalis [2]; 24 h, C9: 384-well, 500 cells/well, 50 µL, 24 h): 1.36 µM
IC50 (T. vaginalis [2]; 24 h, C10: 384-well, 1000 cells/well, 50 µL, 24 h): 2.33 µM
IC50 (T. vaginalis [2]; 36 h, C5: 384-well, 250 cells/well, 25 µL, 36 h): 0.623 µM
IC50 (T. vaginalis [2]; 36 h, C6: 384-well, 500 cells/well, 25 µL, 36 h): 0.888 µM
IC50 (T. vaginalis [2]; 36 h, C7: 384-well, 1000 cells/well, 25 µL, 36 h): 1.89 µM
IC50 (T. vaginalis [2]; 36 h, C8: 384-well, 250 cells/well, 50 µL, 36 h): 0.672 µM
IC50 (T. vaginalis [2]; 36 h, C9: 384-well, 500 cells/well, 50 µL, 36 h): 0.703 µM
IC50 (T. vaginalis [2]; 36 h, C10: 384-well, 1000 cells/well, 50 µL, 36 h): 0.893 µM
IC50 (T. vaginalis [2]; 48 h, C5: 384-well, 250 cells/well, 25 µL, 48 h): 1.55 µM
IC50 (T. vaginalis [2]; 48 h, C6: 384-well, 500 cells/well, 25 µL, 48 h): 2.9 µM
IC50 (T. vaginalis [2]; 48 h, C7: 384-well, 1000 cells/well, 25 µL, 48 h): 4.31 µM
IC50 (T. vaginalis [2]; 48 h, C8: 384-well, 250 cells/well, 50 µL, 48 h): 1.34 µM
IC50 (T. vaginalis [2]; 48 h, C9: 384-well, 500 cells/well, 50 µL, 48 h): 1.5 µM
IC50 (T. vaginalis [2]; 48 h, C10: 384-well, 1000 cells/well, 50 µL, 48 h): 3.03 µM
IC50 (T. vaginalis [3]; 40 h, Cα: 10 cells/µL, 100 µL, 40 h, read-out: Mtz IC50 T. vaginalis): 1.63 µM
IC50 (T. vaginalis [3]; 40 h, Cβ: 20 cells/µL, 100 µL, 40 h, read-out: Mtz IC50 T. vaginalis): 2.64 µM
IC50 (T. vaginalis [3]; 40 h, Cγ: 10 cells/µL, 200 µL, 40 h, read-out: Mtz IC50 T. vaginalis): 1.63 µM
IC50 (T. vaginalis [3]; 40 h, Cδ: 20 cells/µL, 200 µL, 40 h, read-out: Mtz IC50 T. vaginalis): 2.16 µM
IC50 (T. vaginalis [3]; 40 h, pre-optimisation, 40 h, read-out: Mtz IC50 T. vaginalis, across conditions): 2 ± 0.2 µM
IC50 (T. vaginalis [3]; 65 h, Cα: 10 cells/µL, 100 µL, 65 h, read-out: Mtz IC50 T. vaginalis): 3.09 µM
IC50 (T. vaginalis [3]; 65 h, Cβ: 20 cells/µL, 100 µL, 65 h, read-out: Mtz IC50 T. vaginalis): 3.21 µM
IC50 (T. vaginalis [3]; 65 h, Cγ: 10 cells/µL, 200 µL, 65 h, read-out: Mtz IC50 T. vaginalis): 2.67 µM
IC50 (T. vaginalis [3]; 65 h, Cδ: 20 cells/µL, 200 µL, 65 h, read-out: Mtz IC50 T. vaginalis): 3.19 µM
IC50 (T. vaginalis [3]; 65 h, pre-optimisation, 65 h, read-out: Mtz IC50 T. vaginalis, across conditions): 3 ± 0.1 µM
IC50 (T. foetus [4]; 40 h, Cα: 10 cells/µL, 100 µL, 40 h, read-out: Mtz IC50 T. foetus): 1.17 µM
IC50 (T. foetus [4]; 40 h, Cβ: 20 cells/µL, 100 µL, 40 h, read-out: Mtz IC50 T. foetus): 1.31 µM
IC50 (T. foetus [4]; 40 h, Cγ: 10 cells/µL, 200 µL, 40 h, read-out: Mtz IC50 T. foetus): 1.19 µM
IC50 (T. foetus [4]; 40 h, Cδ: 20 cells/µL, 200 µL, 40 h, read-out: Mtz IC50 T. foetus): 1.23 µM
IC50 (T. foetus [4]; 40 h, pre-optimisation, 40 h, read-out: Mtz IC50 T. foetus, across conditions): 1.2 µM
IC50 (T. foetus [4]; 65 h, Cα: 10 cells/µL, 100 µL, 65 h, read-out: Mtz IC50 T. foetus): 2.17 µM
IC50 (T. foetus [4]; 65 h, Cβ: 20 cells/µL, 100 µL, 65 h, read-out: Mtz IC50 T. foetus): 2.7 µM
IC50 (T. foetus [4]; 65 h, Cγ: 10 cells/µL, 200 µL, 65 h, read-out: Mtz IC50 T. foetus): 2.07 µM
IC50 (T. foetus [4]; 65 h, Cδ: 20 cells/µL, 200 µL, 65 h, read-out: Mtz IC50 T. foetus): 2.38 µM
IC50 (T. foetus [4]; 65 h, pre-optimisation, 65 h, read-out: Mtz IC50 T. foetus, across conditions): 2.3 ± 0.1 µM
IC50 (T. vaginalis [5]; 24 h, C2: 96-well, 50 cells/µL, 50 µL, 24 h): 2.18 µM
IC50 (T. vaginalis [5]; 24 h, C3: 96-well, 15 cells/µL, 100 µL, 24 h): 2.91 µM
IC50 (T. vaginalis [5]; 24 h, C4: 96-well, 50 cells/µL, 100 µL, 24 h): 2.23 µM
IC50 (T. vaginalis [5]; 36 h, C1: 96-well, 15 cells/µL, 50 µL, 36 h): 1.16 µM
IC50 (T. vaginalis [5]; 36 h, C2: 96-well, 50 cells/µL, 50 µL, 36 h): 3.74 µM
IC50 (T. vaginalis [5]; 36 h, C3: 96-well, 15 cells/µL, 100 µL, 36 h): 1.34 µM
IC50 (T. vaginalis [5]; 36 h, C4: 96-well, 50 cells/µL, 100 µL, 36 h): 3.45 µM
IC50 (T. vaginalis [5]; 48 h, C1: 96-well, 15 cells/µL, 50 µL, 48 h): 1.58 µM
IC50 (T. vaginalis [5]; 48 h, C2: 96-well, 50 cells/µL, 50 µL, 48 h): 3.49 µM
IC50 (T. vaginalis [5]; 48 h, C3: 96-well, 15 cells/µL, 100 µL, 48 h): 1.96 µM
IC50 (T. vaginalis [5]; 48 h, C4: 96-well, 50 cells/µL, 100 µL, 48 h): 5.01 µM
IC50 (T. foetus [6]): 1.2 ± 0.1 µM
Compound: Cc1ncc([N+](=O)[O-])n1CCO [Metronidazole]
